Test results reported in patent US20240033124A1, “DRUG DELIVERY CONTACT LENS AND OPHTHALMIC PHARMACEUTICAL COMPOSITION” (DAE WON PHARMACEUTICAL CO., LTD, priority 2021, published 2024).

Assay: Drug release test according to blocking ratio of chamber unit (Franz diffusion cell)
Type: physicochemical
Protocol: In order to evaluate drug release characteristics according to the size of the blocking unit (blocking film) that is bonded to the chamber unit, which is for storing the drug, and is for blocking the release of the drug stored in the chamber unit, contact lenses for drug delivery of FIG. 4 having various blocking ratios were prepared.
Specifically, contact lenses for drug delivery bonded to blocking units (blocking films) capable of blocking a […], with respect to a total area of the chamber unit were prepared, a drug was injected into each chamber unit, and drug release characteristics were evaluated.
The drug release test was conducted by putting the contact lens for drug delivery into a Franz diffusion cell and evaluating, and the test was conducted while maintaining the temperature at 37.0±0.5° C. and by using a phosphate buffer solution of pH 7.4. A solution in which lifitegrast was dissolved in distilled water was injected into the chamber unit of contact lenses for drug delivery, and the contact lenses were mounted on a donor. In addition, the experiment was conducted in a manner that 5 mL of the solution in which the drug was released was collected with a syringe from each container, and filled with the same amount of buffer solution at a predetermined sampling time (0.5, 1, 1.5, 2, 3, 4, 6 hours), after 5 mL of the solution containing the collected drug was filtered through a syringe filter, 2 mL each was put into a vial and used as a test solution, and the obtained test solution was analyzed by using high-performance liquid chromatography (HPLC).

Cumulative drug release (%) (blocking ratio 0%, 0 h): 0%
Cumulative drug release (%) (blocking ratio 0%, 0.5 h): 95%
Cumulative drug release (%) (blocking ratio 0%, 1 h): 100%
Cumulative drug release (%) (blocking ratio 0%, 1.5 h): 100%
Cumulative drug release (%) (blocking ratio 0%, 2 h): 100%
Cumulative drug release (%) (blocking ratio 0%, 3 h): 100%
Cumulative drug release (%) (blocking ratio 0%, 4 h): 100%
Cumulative drug release (%) (blocking ratio 0%, 5 h): 100%
Cumulative drug release (%) (blocking ratio 0%, 6 h): 100%
Cumulative drug release (%) (blocking ratio 2.5%, 0 h): 0%
Cumulative drug release (%) (blocking ratio 2.5%, 0.5 h): 90%
Cumulative drug release (%) (blocking ratio 2.5%, 1 h): 95%
Cumulative drug release (%) (blocking ratio 2.5%, 1.5 h): 100%
Cumulative drug release (%) (blocking ratio 2.5%, 2 h): 100%
Cumulative drug release (%) (blocking ratio 2.5%, 3 h): 100%
Cumulative drug release (%) (blocking ratio 2.5%, 4 h): 100%
Cumulative drug release (%) (blocking ratio 2.5%, 5 h): 100%
Cumulative drug release (%) (blocking ratio 2.5%, 6 h): 100%
Cumulative drug release (%) (blocking ratio 50%, 0 h): 0%
Cumulative drug release (%) (blocking ratio 50%, 0.5 h): 86%
Cumulative drug release (%) (blocking ratio 50%, 1 h): 90%
Cumulative drug release (%) (blocking ratio 50%, 1.5 h): 93%
Cumulative drug release (%) (blocking ratio 50%, 2 h): 96%
Cumulative drug release (%) (blocking ratio 50%, 3 h): 100%
Cumulative drug release (%) (blocking ratio 50%, 4 h): 100%
Cumulative drug release (%) (blocking ratio 50%, 5 h): 100%
Cumulative drug release (%) (blocking ratio 50%, 6 h): 100%
Cumulative drug release (%) (blocking ratio 75%, 0 h): 0%
Cumulative drug release (%) (blocking ratio 75%, 0.5 h): 61%
Cumulative drug release (%) (blocking ratio 75%, 1 h): 77%
Cumulative drug release (%) (blocking ratio 75%, 1.5 h): 83%
Cumulative drug release (%) (blocking ratio 75%, 2 h): 87%
Cumulative drug release (%) (blocking ratio 75%, 3 h): 91%
Cumulative drug release (%) (blocking ratio 75%, 4 h): 94%
Cumulative drug release (%) (blocking ratio 75%, 5 h): 97%
Cumulative drug release (%) (blocking ratio 75%, 6 h): 100%
Cumulative drug release (%) (blocking ratio 85%, 0 h): 0%
Cumulative drug release (%) (blocking ratio 85%, 0.5 h): 49%
Cumulative drug release (%) (blocking ratio 85%, 1 h): 59%
Cumulative drug release (%) (blocking ratio 85%, 1.5 h): 65%
Cumulative drug release (%) (blocking ratio 85%, 2 h): 73%
Cumulative drug release (%) (blocking ratio 85%, 3 h): 79%
Cumulative drug release (%) (blocking ratio 85%, 4 h): 87%
Cumulative drug release (%) (blocking ratio 85%, 5 h): 93%
Cumulative drug release (%) (blocking ratio 85%, 6 h): 98%
Cumulative drug release (%) (blocking ratio 95%, 0 h): 0%
Cumulative drug release (%) (blocking ratio 95%, 0.5 h): 33%
Cumulative drug release (%) (blocking ratio 95%, 1 h): 41%
Cumulative drug release (%) (blocking ratio 95%, 1.5 h): 51%
Cumulative drug release (%) (blocking ratio 95%, 2 h): 59%
Cumulative drug release (%) (blocking ratio 95%, 3 h): 71%
Cumulative drug release (%) (blocking ratio 95%, 4 h): 83%
Cumulative drug release (%) (blocking ratio 95%, 5 h): 90%
Cumulative drug release (%) (blocking ratio 95%, 6 h): 94%
Cumulative drug release (%) (blocking ratio 100%, 0 h): 0%
Cumulative drug release (%) (blocking ratio 100%, 0.5 h): 0%
Cumulative drug release (%) (blocking ratio 100%, 1 h): 0%
Cumulative drug release (%) (blocking ratio 100%, 1.5 h): 0%
Cumulative drug release (%) (blocking ratio 100%, 2 h): 0%
Cumulative drug release (%) (blocking ratio 100%, 3 h): 0%
Cumulative drug release (%) (blocking ratio 100%, 4 h): 0%
Cumulative drug release (%) (blocking ratio 100%, 5 h): 0%
Cumulative drug release (%) (blocking ratio 100%, 6 h): 0%
Structure (SMILES): CS(=O)(=O)c1cccc(C[C@H](NC(=O)c2c(Cl)cc3c(c2Cl)CCN(C(=O)c2ccc4ccoc4c2)C3)C(=O)O)c1 [lifitegrast]
